In one assay the test system is HCT116 MTAP null cells. Put plainly: HCT116 MTAP null cell proliferation / viability (CellTiter-Glo, 6 days). The format is cell-based. To be noted: HCT116-MTAP null, 144 h, HCT116 MTAP null cells, 6 days, CellTiter-Glo; read-out: HCT-116 MTAP null IC50. An outline of the steps:
(§1)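 CellTiter-Glo luminescence, 6-day exposure, RPMI 1640 + 10% FBS. Dosing: 1:3 series (8-9 pts, top 1 or 10 μM) or 1:2 series (22 pts, top 10 or 50 μM), DMSO control. IC50 = 50% of control via curve fit.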

The next assay concerns HCT116 WT cells. Put plainly: HCT116 WT cell proliferation / viability (CellTiter-Glo, 6 days). The settings on record: Homo sapiens, HCT-116, 144 h, HCT116 WT cells, 6 days, CellTiter-Glo; read-out: HCT-116 WT IC50. The class given is cell-based. An outline of the steps:
as §1

pIC50: −log10 of the molar value.

As usually defined, the pIC50 is the IC50 on a negative log10 scale, so that one unit is a factor of ten. As to `CN(Cc1ccc(S(F)(F)(F)(F)F)cc1)C(=O)c1cc2c(cn1)nc(N)c1cnn(C)c12` [Example 574, 4-amino-N,1-dimethyl-N-(4-(pentafluoro-lambda~6~- sulfanyl)benzyl)-1H-pyrazolo[4,3-c][1,7]naphthyridine-8-carboxamide], the pIC50 in the assay on HCT116 MTAP null cells is 7.60; in the assay on HCT116 WT cells, 6.06.
For `CC(c1ncc(C(F)(F)F)cc1C#N)N(C)C(=O)c1cc2c(cc1F)nc(N)c1cnn(C)c12` (stereo not shown) [Example 936, 4-amino-N-(1-(3-cyano-5-(trifluoromethyl)pyridin-2-yl)ethyl)-7-fluoro-N,1-dimethyl-1H-pyrazolo[4,3-c]quinoline-8-carboxamide], the pIC50 with HCT116 MTAP null cells was 6.14; in the assay with HCT116 WT cells, 4.73.
Turning to `C[C@H](c1cnc(C(F)(F)F)cn1)N(C)C(=O)c1ccc2nc(N)c3cnn(C)c3c2c1` [Example 776, 4-amino-N,1-dimethyl-N-((1R)-1-(5-(trifluoromethyl)-2-pyrazinyl)ethyl)-1H-pyrazolo[4,3-c]quinoline-8-carboxamide], the values for the pIC50 with HCT116 MTAP null cells and in the assay with HCT116 WT cells were 6.82 and < 5.00, respectively.
On to `CCN(Cc1ccc(C(F)(F)F)cc1)C(=O)c1cc2c3c(c(N)nc2cn1)COC3` [Example 707, 4-amino-N-ethyl-N-(4-(trifluoromethyl)benzyl)-1,3-dihydrofuro[3,4-c][1,7]naphthyridine-8-carboxamide], for which the pIC50 is 6.97 in the assay on HCT116 MTAP null cells and 5.54 in the assay on HCT116 WT cells.
For `COC[C@@H](C)N(Cc1ccc(Br)nn1)C(=O)c1ccc2nc(N)c3c(c2c1)CO[C@@H]3C` [Example 468, (3R)-4-amino-N-((6-bromo-3-pyridazinyl)methyl)-N-((2R)-1-methoxy-2-propanyl)-3-methyl-1,3-dihydrofuro[3,4-c]quinoline-8-carboxamide], the pIC50 in the assay on HCT116 MTAP null cells was 8.10; with HCT116 WT cells, 6.68.
With `Nc1nc2ccc(C(=O)N(Cc3ccc(OC(F)(F)F)cn3)CC3CC3)cc2c2c1COC2` [Example 663, 4-amino-N-(cyclopropylmethyl)-N-((5-(trifluoromethoxy)-2-pyridinyl)methyl)-1,3-dihydrofuro[3,4-c]quinoline-8-carboxamide], the pIC50 is 7.46 in the assay with HCT116 MTAP null cells and 5.99 in the assay with HCT116 WT cells.
`CN(Cc1ccc(Cl)cn1)C(=O)c1ccc2nc(N)c3cnn(C)c3c2c1` [Example 523, 4-amino-N-((5-chloro-2-pyridinyl)methyl)-N,1-dimethyl-1H-pyrazolo[4,3-c]quinoline-8-carboxamide]: the values for the pIC50 in the assay with HCT116 MTAP null cells and in the assay with HCT116 WT cells were 7.14 and 5.17, respectively.
With `CC(C)CN(Cc1ccc(C(F)(F)F)cn1)C(=O)c1ccc2nc(N)c3c(c2c1)CO[C@@H]3CO` (single isomer, unassigned) [Example 580], the pIC50 in the assay on HCT116 MTAP null cells is 6.49; in the assay with HCT116 WT cells, 4.97.
Turning to `Cn1ncc2c(N)nc3cc(F)c(C(=O)N(Cc4ccc(C(F)(F)F)nn4)C4CC4)cc3c21` [Example 804, 4-amino-N-cyclopropyl-7-fluoro-1-methyl-N-((6-(trifluoromethyl)-3-pyridazinyl)methyl)-1H-pyrazolo[4,3-c]quinoline-8-carboxamide], the pIC50 with HCT116 MTAP null cells was 7.59; with HCT116 WT cells, 5.74.
On to `Nc1nc2ccc(C(=O)N(Cc3ccc(C(F)(F)F)nn3)CC3CC3)cc2c2c1COC2` [Example 336, 4-amino-N-(cyclopropylmethyl)-N-((6-(trifluoromethyl)-3-pyridazinyl)methyl)-1,3-dihydrofuro[3,4-c]quinoline-8-carboxamide], for which the pIC50 was 7.06 in the assay on HCT116 MTAP null cells and 5.59 in the assay with HCT116 WT cells.
For the compound `CCN(Cc1ccc(C(F)(F)F)nn1)C(=O)c1cc2c3c(c(N)nc2cc1F)[C@@H](C)OC3` [Example 559, (3R)-4-amino-N-ethyl-7-fluoro-3-methyl-N-((6-(trifluoromethyl)-3-pyridazinyl)methyl)-1,3-dihydrofuro[3,4-c]quinoline-8-carboxamide], the results for the pIC50 in the assay on HCT116 MTAP null cells and with HCT116 WT cells were 7.52 and 5.93, respectively.

The record behind these values is patent publication US20240101570A1 (AMGEN INC., priority 2020, published 2024).
